System: CWR22RV1 cells
Test: Inhibition of proliferation of CWR22RV1 cells (CCK-8)
Type: cell-based, human
Details: 6 days culture, read-out: IC50 against CWR22RV1 cells
Protocol: 1) CWR22RV1 cells were subcultured in cell culture medium, and the cells in good growth condition were seeded in a 96-well plate, 80 μL for each well, and the cell number in each well was 1500. The plate was incubated overnight in a 37° C., 5% CO2 cell incubator. 2) The drug was prepared as 30 mM stock solution with dimethyl sulfoxide (DMSO). Prior to use, the stock solution was diluted 3 times with DMSO, and then further diluted as 3-fold gradient to obtain 9 concentration gradients. Then, each concentration of compound was diluted 200 times with the culture solution (ensuring that the DMSO concentration in the culture system was 0.1%), and two replicate wells were set for each concentration. 20 μL of diluted compound solution was added to the cell culture well (with final concentrations of 10 μM, 3.3 μM. 1.1 μM . . . ), and the plate was gently shaken to mix. In addition, 3 negative control wells containing only cells and 3 blank control wells containing only culture medium were included (6 wells were each added 20 μL DMSO diluted 200 times with culture medium). 2. Result detection: (1) After culturing for 6 days, 10 μL CCK-8 was added to each well, and the plate was continually cultured in a 37° C., 5% CO2 cell incubator for 2.5 h. (2) The absorbance (OD value) was detected at 450 nm using a multifunctional microplate reader. (3) The data were analyzed by Dose-response-inhibition equation in the software GraphPad Prism6, and the IC50 value was obtained.

Row | SMILES | IC50
1 | CNC(=O)Nc1ccc2c(c1)CC[C@@]21OC(=O)N(CC(=O)N2CCCC2c2ccccc2C)C1=O (some centres unmarked) [Example 324] | > 2000 nM

Same assay, conditions: Homo sapiens, CWR22Rv1, 144 h, 6 days culture, read-out: IC50 against CWR22RV1 cells

Row | SMILES | IC50
2 | CNC(=O)Nc1ccc2c(c1)CC[C@]21OC(=O)N(Cc2nnc(-c3ccccc3)o2)C1=O [Example 317, (S)-1-(2′,4′-dioxo-3′-((5-phenyl-1,3,4-oxadiazol-2-yl)methyl)-2,3-dihydrospiro[indene-1,5′-oxazolidine]-5-yl)-3-methylurea] | > 2000 nM
3 | CNC(=O)Nc1ccc2c(c1)CC[C@@]21OC(=O)N(CC(=O)N2CCCC2c2cccc(C)c2)C1=O (some centres unmarked) [Example 318] | > 2000 nM
4 | CNC(=O)Nc1ccc2c(c1)CC[C@@]21OC(=O)N(CC(=O)N2CCCCC2c2ccccc2)C1=O (stereo partly drawn) [Example 322, 1-((1R)-2′,4′-dioxo-3′-(2-oxo-2-(2-phenylpiperidin-1-yl)ethyl)-2,3-dihydrospiro[indene-1,5′-oxazolidine]-5-yl)-3-methylurea] | > 2000 nM
5 | CNC(=O)Nc1ccc2c(c1)CC[C@@]21OC(=O)N(CC(=O)N2CCCC2c2ccccc2F)C1=O (stereo partly drawn) [Example 323, 1-((1R)-3′-(2-(2-(2-fluorophenyl)pyrrolidin-1-yl)-2-oxoethyl)-2′,4′-dioxo-2,3-dihydrospiro[indene-1,5′-oxazolidine]-5-yl)-3-methylurea] | > 2000 nM
6 | CNC(=O)Nc1ccc2c(c1)CC[C@@]21OC(=O)N(CC(=O)N2CCC[C@H]2C(=O)N2CC3CC2CO3)C1=O (stereo partly drawn) [Example 328, 1-(3′-(2-((2S)-2-(2-oxa-5-azabicyclo[2.2.1]heptan-5-carbonyl)pyrrolidin-1-yl)-2-oxoethyl)-2′,4′-dioxo-2,3-dihydrospiro[indene-1,5′-oxazolidine]-5-yl)-3-methylurea] | > 2000 nM
7 | CNC(=O)Nc1ccc2c(c1)CCC21OC(=O)N(CC(=O)N2CCCC2c2ncc[nH]2)C1=O (centres unmarked) [Example 330, 1-(3′-(2-(2-(1H-imidazol-2-yl)pyrrolidin-1-yl)-2-oxoethyl)-2′,4′-dioxo-2,3-dihydrospiro[indene-1,5′-oxazolidine]-5-yl)-3-methylurea] | > 2000 nM
8 | CNC(=O)Nc1ccc2c(c1)CC[C@@]21OC(=O)N(CC(=O)N2CCC[C@H]2C#N)C1=O [Example 331, 1-((R)-3′-(2-((S)-2-cyanopyrrolidin-1-yl)-2-oxoethyl)-2′,4′-dioxo-2,3-dihydrospiro[indene-1,5-oxazolidine]-5-yl)-3-methylurea] | > 2000 nM
9 | CNC(=O)Nc1ccc2c(c1)CC[C@@]21OC(=O)N(CC(=O)N2CCCC2c2ccccn2)C1=O (stereo partly drawn) [Example 332, 1-((1R)-2′,4′-dioxo-3′-(2-oxo-2-(2-(pyridin-2-yl)pyrrolidin-1-yl)ethyl)-2,3-dihydrospiro[indene-1,5′-oxazolidine]-5-yl)-3-methylurea] | > 2000 nM
10 | CNC(=O)Nc1ccc2c(c1)CC[C@@]21OC(=O)N(CC(=O)N2CCC[C@H]2c2cc(C)n[nH]2)C1=O [Example 333, 1-methyl-3-((R)-3′-(2-((S)-2-(3-methyl-1H-pyrazol-5-yl)pyrrolidin-1-yl)-2-oxoethyl)-2′,4′-dioxo-2,3-dihydrospiro[indene-1,5′-oxazolidine]-5-yl)urea] | > 2000 nM
11 | CNC(=O)Nc1ccc2c(c1)CC[C@@]21OC(=O)N(CC(=O)N2CCCC2c2cccnc2)C1=O (stereo partly drawn) [Example 334, 1-((1R)-2′,4′-dioxo-3′-(2-oxo-2-(2-(pyridin-3-yl)pyrrolidin-1-yl)ethyl)-2,3-dihydrospiro[indene-1,5′-oxazolidine]-5-yl)-3-methylurea] | > 2000 nM
12 | CNC(=O)Nc1ccc2c(c1)CC[C@@]21OC(=O)N(CC(=O)N2CCCC2c2cccc(OC)c2)C1=O (stereo partly drawn) [Example 335, 1-((1R)-3′-(2-(2-(3-methoxyphenyl)pyrrolidin-1-yl)-2-oxoethyl)-2′,4′-dioxo-2,3-dihydrospiro[indene-1,5′-oxazolidine]-5-yl)-3-methylurea] | > 2000 nM
13 | CNC(=O)Nc1ccc2c(c1)CC[C@@]21OC(=O)N(CC(=O)N2CCCC2c2ccccc2Br)C1=O (stereo partly drawn) [Example 336, 1-((1R)-3′-(2-(2-(2-bromophenyl)pyrrolidin-1-yl)-2-oxoethyl)-2′,4′-dioxo-2,3-dihydrospiro[indene-1,5′-oxazolidine]-5-yl)-3-methylurea] | > 2000 nM
14 | CNC(=O)Nc1ccc2c(c1)CC[C@@]21OC(=O)N(CC(=O)N2C(C)CCC2c2ccc(F)cc2OC)C1=O (stereo partly drawn) [Example 337, 1-((1R)-3′-(2-(2-(4-fluoro-2-methoxyphenyl)-5-methylpyrrolidin-1-yl)-2-oxoethyl)-2′,4′-dioxo-2,3-dihydrospiro[indene-1,5′-oxazolidine]-5-yl)-3-methylurea] | 500 to 2000 nM
15 | CNC(=O)Nc1ccc2c(c1)CC[C@@]21OC(=O)N(CC(=O)N2CCCC2c2ccc(F)cc2OC)C1=O (stereo partly drawn) [Example 340, 1-((1R)-3′-(2-(2-(4-fluoro-2-methoxyphenyl)pyrrolidin-1-yl)-2-oxoethyl)-2′,4′-dioxo-2,3-dihydrospiro[indene-1,5′-oxazolidine]-5-yl)-3-methylurea] | > 2000 nM
16 | CNC(=O)Nc1ccc2c(c1)CC[C@@]21OC(=O)N(CC(=O)N2CCCC2c2ccc(OC)cc2OC)C1=O (stereo partly drawn) [Example 341, 1-((1R)-3′-(2-(2-(2,4-dimethoxyphenyl)pyrrolidin-1-yl)-2-oxoethyl)-2′,4′-dioxo-2,3-dihydrospiro[indene-1,5′oxazolidin]-5-yl)-3-methylurea] | > 2000 nM
17 | CNC(=O)Nc1ccc2c(c1)CC[C@@]21OC(=O)N(CC(=O)N2CCCC2c2cccc[n+]2[O-])C1=O (stereo partly drawn) [Example 343, 2-(1-(2-((R)-5-(3-methylureido)-2′,4′-dioxo-2,3-dihydrospiro[indene-1,5′-oxazole]-3′-yl)acetyl)pyrrolidin-2-yl)pyridin-1-oxide] | > 2000 nM
18 | CNC(=O)Nc1ccc2c(c1)CC[C@@]21OC(=O)N(CC(=O)N2CCCC2c2ccc(F)cc2C)C1=O (stereo partly drawn) [Example 347, 1-((1R)-3′-(2-(2-(4-fluoro-2-methylphenyl)pyrrolidin-1-yl)-2-oxoethyl)-2′,4′-dioxo-2,3-dihydrospiro[indene-1,5′-oxazolidine]-5-yl)-3-methylurea] | 500 to 2000 nM
19 | CNC(=O)Nc1ccc2c(c1)CC[C@@]21OC(=O)N(CC(=O)N2C(C)CCC2c2ccc(F)cc2)C1=O (stereo partly drawn) [Example 348, 1-((1R)-3′-(2-(2-(4-fluorophenyl)-5-methylpyrrolidin-1-yl)-2-oxoethyl)-2′,4′-dioxo-2,3-dihydrospiro[indene-1,5′-oxazolidine]-5-yl)-3-methylurea] | ≤ 500 nM
20 | CNC(=O)Nc1ccc2c(c1)CC[C@@]21OC(=O)N(CC(=O)N2C(C)CCC2(c2ccc(OC)cc2)c2ccc(OC)cc2)C1=O (stereo partly drawn) [Example 349, 1-((1R)-3′-(2-(2,2-bis(4-methoxyphenyl)-5-methylpyrrolidin-1-yl)-2-oxoethyl)-2′,4′-dioxo-2,3-dihydrospiro[indene-1,5′-oxazolidine]-5-yl)-3-methylurea] | > 2000 nM
21 | CNC(=O)Nc1ccc2c(c1)CC[C@@]21OC(=O)N(CC(=O)N2C(C)CCC2c2ccc(Cl)cc2C)C1=O (stereo partly drawn) [Example 351, 1-((1R)-3′-(2-(2-(4-chloro-2-methylphenyl)-5-methylpyrrolidin-1-yl)-2-oxoethyl)-2′,4′-dioxo-2,3-dihydrospiro[indene-1,5′-oxazolidine]-5-yl)-3-methylurea] | ≤ 500 nM
22 | CNC(=O)Nc1ccc2c(c1)CC[C@@]21OC(=O)N(CC(=O)N2C(C)CCC2c2ccc(C(F)(F)F)cc2C)C1=O (stereo partly drawn) [Example 352, 1-methyl-3-((1R)-3′-(2-(2-methyl-5-(2-methyl-4-(trifluoromethyl)phenyl)pyrrolidin-1-yl)-2-oxoethyl)-2′,4′-dioxo-2,3-dihydrospiro[indene-1,5′-oxazolidine]-5-yl)urea] | > 2000 nM
23 | CNC(=O)Nc1ccc2c(c1)CC[C@@]21OC(=O)N(CC(=O)N2C(C)CCC2c2ccc(F)cc2C)C1=O (stereo partly drawn) [Example 353, 1-((1R)-3′-(2-(2-(4-fluoro-2-methylphenyl)-5-methylpyrrolidin-1-yl)-2-oxoethyl)-2′,4′-dioxo-2,3-dihydrospiro[indene-1,5′-oxazolidine]-5-yl)-3-methylurea] | ≤ 500 nM
24 | CNC(=O)Nc1ccc2c(c1)CC[C@@]21OC(=O)N(CC(=O)N2C(C)CCC2c2ccc(F)cc2Br)C1=O (stereo partly drawn) [Example 354, 1-((1R)-3′-(2-(2-(2-bromo-4-fluorophenyl)-5-methylpyrrolidin-1-yl)-2-oxoethyl)-2′,4′-dioxo-2,3-dihydrospiro[indene-1,5′-oxazolidine]-5-yl)-3-methylurea] | 500 to 2000 nM
25 | CNC(=O)Nc1ccc2c(c1)CCC21OC(=O)N(CC(=O)N2CCCCC23CCN(C(C)=O)CC3)C1=O (centres unmarked) [Example 355, 1-(3′-(2-(9-acetyl-1,9--1-yl)-2-oxoethyl)-2′,4′-dioxo-2,3-dihydrospiro[indene-1,5′-oxazolidine]-5-yl)-3-methylurea] | > 2000 nM
26 | CNC(=O)Nc1ccc2c(c1)CC[C@@]21OC(=O)N(CC(=O)N2C(C)CCC2c2ccc(F)cc2C(F)(F)F)C1=O (stereo partly drawn) [Example 356, 1-((1R)-3′-(2-(2-(4-fluoro-2-(trifluoromethyl)phenyl)-5-methylpyrrolidin-1-yl)-2-oxoethyl)-2′,4′-dioxo-2,3-dihydrospiro[indene-1,5′-oxazolidine]-5-yl)-3-methylurea] | > 2000 nM

Same assay, conditions: Homo sapiens, CWR22Rv1, 144 h, 6 days culture, read-out: IC50 against CWR22RV1 cells (text)

Row | SMILES | IC50
27 | CNC(=O)Nc1ccc2c(c1)CC[C@@]21OC(=O)N(CC(=O)N2C(C)CCC2c2ccc(F)cc2)C1=O (stereo partly drawn) [Example 348, 1-((1R)-3′-(2-(2-(4-fluorophenyl)-5-methylpyrrolidin-1-yl)-2-oxoethyl)-2′,4′-dioxo-2,3-dihydrospiro[indene-1,5′-oxazolidine]-5-yl)-3-methylurea] | ≤ 500 nM
28 | CNC(=O)Nc1ccc2c(c1)CC[C@@]21OC(=O)N(CC(=O)N2C(C)CCC2c2ccc(Cl)cc2C)C1=O (stereo partly drawn) [Example 351, 1-((1R)-3′-(2-(2-(4-chloro-2-methylphenyl)-5-methylpyrrolidin-1-yl)-2-oxoethyl)-2′,4′-dioxo-2,3-dihydrospiro[indene-1,5′-oxazolidine]-5-yl)-3-methylurea] | ≤ 500 nM
29 | CNC(=O)Nc1ccc2c(c1)CC[C@@]21OC(=O)N(CC(=O)N2C(C)CCC2c2ccc(F)cc2C)C1=O (stereo partly drawn) [Example 353, 1-((1R)-3′-(2-(2-(4-fluoro-2-methylphenyl)-5-methylpyrrolidin-1-yl)-2-oxoethyl)-2′,4′-dioxo-2,3-dihydrospiro[indene-1,5′-oxazolidine]-5-yl)-3-methylurea] | ≤ 500 nM

— patent US20220087996A1, “Histone acetylase p300 inhibitor and use thereof” (HINOVA PHARMACEUTICALS INC., priority 2018, published 2022)
